In ChEMBL document CHEMBL5357027, “Annonaceous Acetogenins Synergistically Inhibit Hepatocellular Carcinoma with Sorafenib” (J Nat Prod, 2024):
Activity calls are given as the source filed them. No cut-off for these calls is given here.

What was measured:
HepG2 [1] = test: Cytotoxicity against human HepG2 cells assessed as cell growth inhibition incubated for 48 hrs by MTT assay; format: functional, cell-based; details: HepG2, 48 h
Huh-7 [2] = test: Cytotoxicity against human Huh-7 cells assessed as cell growth inhibition incubated for 48 hrs by MTT assay; format: functional, cell-based; details: Huh-7, 48 h
MHCC97H [3] = test: Cytotoxicity against human MHCC97H cells assessed as cell growth inhibition incubated for 48 hrs by MTT assay; format: functional, cell-based
HCCLM3 [4] = test: Cytotoxicity against human HCCLM3 cells assessed as cell growth inhibition incubated for 48 hrs by MTT assay; format: functional, cell-based; details: HCCLM3, 48 h
HCCLM3 [5] = test: Inhibition of mitochondrial respiratory chain complex I in human HCCLM3 incubated for 24 hrs; format: cell-based
HepG2 [6] = test: Synergistic cytotoxicity against human HepG2 cells assessed as cell growth inhibition by measuring synergy score at 1 to 16 uM incubated for 48 hrs in presence of sorafenib at 1 to 16 uM by MTT assay; format: functional; details: dose 1-16 µM
Huh-7 [7] = test: Synergistic cytotoxicity against human Huh-7 cells assessed as cell growth inhibition by measuring synergy score at 1 to 16 uM incubated for 48 hrs in presence of sorafenib at 1 to 16 uM by MTT assay; format: functional; details: dose 1-16 µM
MHCC97H [8] = test: Synergistic cytotoxicity against human MHCC97H cells assessed as cell growth inhibition by measuring synergy score at 1 to 16 uM incubated for 48 hrs in presence of sorafenib at 1 to 16 uM by MTT assay; format: functional; details: dose 1-16 µM
HCCLM3 [9] = test: Synergistic cytotoxicity against human HCCLM3 cells assessed as cell growth inhibition by measuring synergy score at 1 to 16 uM incubated for 48 hrs in presence of sorafenib at 1 to 16 uM by MTT assay; format: functional; details: dose 1-16 µM
HepG2 [10] = test: Inhibition of mitochondrial function in human HepG2 cells assessed as reduction in ATP production at 16 uM incubated for 48 hrs relative to control; format: functional; parameters: scale not given: the % may be the effect or the level left
Huh-7 [11] = test: Inhibition of mitochondrial function in human Huh-7 cells assessed as reduction in ATP production at 16 uM incubated for 48 hrs relative to control; format: functional; parameters: scale not given: the % may be the effect or the level left
MHCC97H [12] = test: Inhibition of mitochondrial function in human MHCC97H cells assessed as reduction in ATP production at 16 uM incubated for 48 hrs relative to control; format: functional; parameters: scale not given: the % may be the effect or the level left
HCCLM3 [13] = test: Inhibition of mitochondrial function in human HCCLM3 cells assessed as reduction in ATP production at 16 uM incubated for 48 hrs relative to control; format: functional; parameters: scale not given: the % may be the effect or the level left
HCCLM3 [14] = test: Induction of apoptosis in human HCCLM3 cells assessed as necrotic cells at 4 uM incubated for 48 hrs by Annexin V/FITC-PI staining based flow cytometry (reference value: 3.33%); format: functional
HCCLM3 [15] = test: Induction of apoptosis in human HCCLM3 cells assessed as late apoptotic cells at 4 uM incubated for 48 hrs by Annexin V/FITC-PI staining based flow cytometry (reference value: 0.07%); format: functional
HCCLM3 [16] = test: Induction of apoptosis in human HCCLM3 cells assessed as early apoptotic cells at 4 uM incubated for 48 hrs by Annexin V/FITC-PI staining based flow cytometry (reference value: 0.05%); format: functional
HCCLM3 [17] = test: Induction of apoptosis in human HCCLM3 cells assessed as viable cells at 4 uM incubated for 48 hrs by Annexin V/FITC-PI staining based flow cytometry (reference value: 96.55%); format: functional; details: read-out: Activity
HepG2 [18] = test: Synergistic inhibition of mitochondrial function in human HepG2 cells assessed as reduction in intracellular ATP level at 8 uM incubated for 48 hrs in presence of 16 uM sorafenib; format: functional, cell-based
Huh-7 [19] = test: Synergistic inhibition of mitochondrial function in human Huh-7 cells assessed as reduction in intracellular ATP level at 8 uM incubated for 48 hrs in presence of 16 uM sorafenib; format: functional, cell-based
MHCC97H [20] = test: Synergistic inhibition of mitochondrial function in human MHCC97H cells assessed as reduction in intracellular ATP level at 8 uM incubated for 48 hrs in presence of 16 uM sorafenib; format: functional, cell-based
HCCLM3 [21] = test: Synergistic inhibition of mitochondrial function in human HCCLM3 cells assessed as reduction in intracellular ATP level at 8 uM incubated for 48 hrs in presence of 16 uM sorafenib; format: functional, cell-based
HCCLM3 [22] = test: Induction of apoptosis in human HCCLM3 cells assessed as viable cells at 4 uM incubated for 48 hrs in presence of 4uM sorafenib by Annexin V/FITC-PI staining based flow cytometry (reference value: 96.55%); format: functional; details: read-out: Activity
HCCLM3 [23] = test: Induction of apoptosis in human HCCLM3 cells assessed as early apoptotic cells at 4 uM incubated for 48 hrs in presence of 4uM sorafenib by Annexin V/FITC-PI staining based flow cytometry (reference value: 0.05%); format: functional
HCCLM3 [24] = test: Induction of apoptosis in human HCCLM3 cells assessed as late apoptotic cells at 4 uM incubated for 48 hrs in presence of 4uM sorafenib by Annexin V/FITC-PI staining based flow cytometry (reference value: 0.07%); format: functional
HCCLM3 [25] = test: Induction of apoptosis in human HCCLM3 cells assessed as necrotic cells at 4 uM incubated for 48 hrs in presence of 4uM sorafenib by Annexin V/FITC-PI staining based flow cytometry (reference value: 3.33%); format: functional
HCCLM3 [26] = test: Induction of apoptosis in human HCCLM3 cells assessed as apoptotic ratio at 4 uM incubated for 48 hrs in presence of 4uM sorafenib by Annexin V/FITC-PI staining based flow cytometry relative to control; format: functional
HCCLM3 [27] = test: Antitumor activity against human HCCLM3 cells xenografted in nude mouse assessed as decrease in tumor volume at 4 to 8 mg/kg, PO measured every other day for 21 days; format: functional, organism-based; details: dose 4-8 mg/kg, time 21.0 day
HCCLM3 [28] = test: Synergistic antitumor activity against human HCCLM3 cells xenografted in nude mouse assessed as decrease in tumor volume at 4 to 8 mg/kg, PO in presence of 32 mg/kg sorafenib measured every other day for 21 days; format: functional, organism-based; details: dose 4-8 mg/kg, time 21.0 day
HCCLM3 [29] = test: Synergistic antitumor activity against human HCCLM3 cells xenografted in nude mouse assessed as decrease in tumor weight at 4 to 8 mg/kg, PO in presence of 32 mg/kg sorafenib measured every other day for 21 days; format: functional, organism-based; details: dose 4-8 mg/kg, time 21.0 day
HCCLM3 [30] = test: Synergistic antitumor activity against human HCCLM3 cells xenografted in nude mouse assessed as induction of aPOptosis in tumor at 4 to 8 mg/kg, PO in presence of 32 mg/kg sorafenib and measured for 21 days by tunel staining based immunohistochemical analysis; format: functional, organism-based; details: dose 4-8 mg/kg, time 21.0 day
HepG2 [31] = test: Inhibition of mitochondrial function in human HepG2 cells assessed as reduction in ATP production at 8 uM incubated for 48 hrs; format: functional, cell-based
Huh-7 [32] = test: Inhibition of mitochondrial function in human Huh-7 cells assessed as reduction in ATP production at 8 uM incubated for 48 hrs; format: functional, cell-based
MHCC97H [33] = test: Inhibition of mitochondrial function in human MHCC97H cells assessed as reduction in ATP production at 8 uM incubated for 48 hrs; format: functional, cell-based
HCCLM3 [34] = test: Inhibition of mitochondrial function in human HCCLM3 cells assessed as reduction in ATP production at 8 uM incubated for 48 hrs; format: functional, cell-based
[35] = Toxicity in nude mouse xenografted with human HCCLM3 cells assessed as decrease in body weight at 4 to 8 mg/kg, PO measured every other day for 21 days; format: organism-based; details: in vivo, 504 h, dose 4-8 mg/kg, time 21 day
[36] = Toxicity in nude mouse xenografted with human HCCLM3 cells assessed as decrease in body weight at 1 to 8 mg/kg, PO in presence of sorafenib measured every other day for 21 days; format: organism-based; details: in vivo, 504 h, dose 1-8 mg/kg, time 21 day
[37] = Toxicity in nude mouse xenografted with human HCCLM3 cells assessed as heart damage at 4 to 8 mg/kg, PO measured for 21 days by H and E staining based; format: organism-based; details: in vivo, 504 h, dose 4-8 mg/kg, time 21 day
[38] = Toxicity in nude mouse xenografted with human HCCLM3 cells assessed as liver damage at 4 to 8 mg/kg, PO measured for 21 days by H and E staining based analysis; format: organism-based; details: in vivo, 504 h, dose 4-8 mg/kg, time 21 day
[39] = Toxicity in nude mouse xenografted with human HCCLM3 cells assessed as kidney damage at 4 to 8 mg/kg, PO measured for 21 days by H and E staining based analysis; format: organism-based; details: in vivo, 504 h, dose 4-8 mg/kg, time 21 day
[40] = Toxicity in nude mouse xenografted with human HCCLM3 cells assessed as spleen damage at 4 to 8 mg/kg, PO measured for 21 days by H and E staining based analysis; format: organism-based; details: in vivo, 504 h, dose 4-8 mg/kg, time 21 day
[41] = Toxicity in nude mouse xenografted with human HCCLM3 cells assessed as lung damage at 4 to 8 mg/kg, PO measured for 21 days by H and E staining based analysis; format: organism-based; details: in vivo, 504 h, dose 4-8 mg/kg, time 21 day
[42] = Toxicity in nude mouse xenografted with human HCCLM3 cells assessed as heart damage at 1 to 8 mg/kg, PO in presence of sorafenib measured for 21 days by H and E staining based; format: organism-based; details: in vivo, 504 h, dose 1-8 mg/kg, time 21 day
[43] = Toxicity in nude mouse xenografted with human HCCLM3 cells assessed as liver damage at 1 to 8 mg/kg, PO in presence of sorafenib measured for 21 days by H and E staining based analysis; format: organism-based; details: in vivo, 504 h, dose 1-8 mg/kg, time 21 day
[44] = Toxicity in nude mouse xenografted with human HCCLM3 cells assessed as kidney damage at 1 to 8 mg/kg, PO in presence of sorafenib measured for 21 days by H and E staining based analysis; format: organism-based; details: in vivo, 504 h, dose 1-8 mg/kg, time 21 day
[45] = Toxicity in nude mouse xenografted with human HCCLM3 cells assessed as spleen damage at 1 to 8 mg/kg, PO in presence of sorafenib measured for 21 days by H and E staining based analysis; format: organism-based; details: in vivo, 504 h, dose 1-8 mg/kg, time 21 day
[46] = Toxicity in nude mouse xenografted with human HCCLM3 cells assessed as lung damage at 1 to 8 mg/kg, PO in presence of sorafenib measured for 21 days by H and E staining based analysis; format: organism-based; details: in vivo, 504 h, dose 1-8 mg/kg, time 21 day

CCCCCCCCCCCC[C@@H](O)[C@H]1CC[C@H]([C@H](O)CCCCC(=O)CCCCC[C@@H](O)CC2=C[C@H](C)OC2=O)O1 [ANNONACINONE]
IC50 (HepG2 [1]): 15.5 µM
IC50 (Huh-7 [2]): 15.5 µM
IC50 (MHCC97H [3]): 15.5 µM
IC50 (HCCLM3 [4]): 15.5 µM
inhibition (HCCLM3 [5]): Active
Activity (HepG2 [6]): 3.4
Activity (Huh-7 [7]): 3.4
Activity (MHCC97H [8]): 3.4
Activity (HCCLM3 [9]): 3.4

CNC(=O)c1cc(Oc2ccc(NC(=O)Nc3ccc(Cl)c(C(F)(F)F)c3)cc2)ccn1 [SORAFENIB]
Activity (HepG2 [10]): 69.5%
Activity (Huh-7 [11]): 41.1%
Activity (MHCC97H [12]): 54.4%
Activity (HCCLM3 [13]): 77.4%
Activity (HCCLM3 [14]): 1.57%
Activity (HCCLM3 [15]): 0.67%
Activity (HCCLM3 [16]): 3.59%
viability at 4 µM (HCCLM3 [17]): 94.2%

CCCCCCCCCCCC[C@@H](O)[C@H]1CC[C@H]([C@H](O)CCCC[C@@H](O)CCCCC[C@@H](O)CC2=C[C@H](C)OC2=O)O1
IC50 (HepG2 [1]): 7.4 µM
IC50 (Huh-7 [2]): 7.4 µM
IC50 (MHCC97H [3]): 7.4 µM
IC50 (HCCLM3 [4]): 7.4 µM
inhibition (HCCLM3 [5]): Active
inhibition (HepG2 [18]): Active
inhibition (Huh-7 [19]): Active
inhibition (MHCC97H [20]): Active
Activity (HCCLM3 [21]): Active
Activity (HCCLM3 [14]): 3.24%
Activity (HCCLM3 [15]): 1.46%
Activity (HCCLM3 [16]): 1.7%
viability at 4 µM (HCCLM3 [17]): 93.6%
viability at 4 µM (HCCLM3 [22]): 73.8%
Activity (HCCLM3 [23]): 17.91%
Activity (HCCLM3 [24]): 3.24%
Activity (HCCLM3 [25]): 5.02%
Activity (HCCLM3 [26]): 18.5%
Activity (HCCLM3 [27]): Active
Activity (HCCLM3 [28]): Active
Activity (HCCLM3 [29]): Active
Activity (HCCLM3 [30]): Active
inhibition (HepG2 [31]): Active
inhibition (Huh-7 [32]): Active
inhibition (MHCC97H [33]): Active
inhibition (HCCLM3 [34]): Active
Activity [35]: Non-Toxic
Activity [36]: Non-Toxic
Activity [37]: Non-Toxic
Activity [38]: Non-Toxic
Activity [39]: Non-Toxic
Activity [40]: Non-Toxic
Activity [41]: Non-Toxic
Activity [42]: Non-Toxic
Activity [43]: Non-Toxic
Activity [44]: Non-Toxic
Activity [45]: Non-Toxic
Activity [46]: Non-Toxic
Activity (HepG2 [6]): 4.1
Activity (Huh-7 [7]): 1.6
Activity (MHCC97H [8]): 0.7
Activity (HCCLM3 [9]): 12.1

CCCCCCCCCC[C@@H](O)[C@H](O)C[C@@H](O)[C@H]1CC[C@H](CCCCCCCCCC[C@@H](O)CC2=C[C@H](C)OC2=O)O1
IC50 (HepG2 [1]): > 50 µM
IC50 (Huh-7 [2]): > 50 µM
IC50 (MHCC97H [3]): > 50 µM
IC50 (HCCLM3 [4]): > 50 µM
inhibition (HCCLM3 [5]): Active
Activity (HepG2 [6]): 2.7
Activity (Huh-7 [7]): 2.7
Activity (MHCC97H [8]): 2.7
Activity (HCCLM3 [9]): 2.7
